According to patent US20250326748A1, “COMPOUNDS AND METHODS FOR MODULATING SPLICING” (REMIX THERAPEUTICS INC., priority 2022, published 2025):
Structures can show the parent of a compound that is named as a salt. Where two headings read alike, the source gives them in different places.

Assays:
Assay type in all cases: cell-based, human
HTT mRNA = test: Splicing RT-qPCR assay, HTT canonical (CJ) and alternative (AJ) junction mRNA; settings: for IC50: canonical junction mRNA; for AC50: alternative junction mRNA, read-out: HTT AJ (AC50, increase in AJ mRNA)
Outline: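 Cmpd 24 h, 37 °C/5% CO2; 11-pt 3x serial dilution from 10 uM final; DMSO max 0.25%. Cells: A673 (DMEM/10% FBS, pre-adhered 24 h) or K562 (IMDM/10% FBS). Lyse, DNase I, then 1-step RT-qPCR for CJ and AJ; housekeeping-normalized.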

HiBiT-tagged MYB protein = test: HiBiT protein abundance assay, MYB (K562 HiBiT knock-in); settings: HiBiT knock-in cells, 24 hours
Outline: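 Endogenously HiBiT-tagged K562 knock-in lines treated 24 h at 37 °C with 10-point 3-fold dilutions (top 10 μM final, DMSO ≤0.25%) in IMDM+1% FBS. Lytic Nano-Glo luminescence normalized to DMSO and unmodified K562 controls; four-parameter fit gives 50%-abundance concentration (IC50).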

Target C = test: HiBiT protein abundance assay, Target C (K562 HiBiT knock-in); settings: HiBiT knock-in cells, 24 hours
Outline: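 K562 HiBiT knock-in cells (10000/well) in IMDM + 1% FBS were treated for 24 h at 37° C. with a 10-point 3-fold dilution series (top 10 μM final), with DMSO ≤0.25%. Unmodified K562 served as baseline. HiBiT lytic luminescence was normalized to controls, and IC50 was interpolated at 50% from a four-parameter fit.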

[1] = Homo sapiens, 24 h, RT-qPCR, A673 or K562 cells, 24 hours treatment, read-out: HTT CJ (IC50, decrease in CJ mRNA)
[2] = Homo sapiens, qPCR panel, read-out: HTT CJ (decrease in CJ mRNA levels, IC50)
[3] = Homo sapiens, RT-qPCR, A673 or K562 cells, 24 hours treatment

SMILES | IC50 (HTT mRNA; [1]) [µM] | IC50 (HTT mRNA; [2]) [µM] | AC50 (HTT mRNA; [3]) [µM] | IC50 (HiBiT-tagged MYB protein) [µM] | IC50 (Target C) [µM] | AC50 (HTT mRNA; RT-qPCR, A673 or K562 cells, 24 hours treatment) [µM] | IC50 (HTT mRNA; RT-qPCR, A673 or K562 cells, 24 hours treatment, read-out: HTT CJ (IC50, decrease in CJ mRNA)) [µM] | IC50 (HTT mRNA; qPCR panel, read-out: HTT CJ (decrease in CJ mRNA levels, IC50)) [µM]
CC1CN(c2cnc3nc(-c4cc(F)c5nn(C)cc5c4)cc(Cl)c3c2)CCN1 (stereo not shown) [Compound 203, 4-chloro-2-(7-fluoro-2-methyl-2H-indazol-5-yl)-6-(3-methylpiperazin-1-yl)-1,8-naphthyridine 2,2,2-trifluoroacetate] | 0.1 to 1 | 0.1 to 1 | 1 to 10 | 0.1 to 1 | 1 to 10 |  |  | 
Cc1c(O)c(-c2cc(Cl)c3cc(N(C)C4CCNC4)cnc3n2)cc2cn(C)nc12 (stereo not shown) [Compound 204, 5-[4-chloro-6-(367pyrrolidine-3-ylamino)-1,8-naphthyridin-2-yl]-2,7-dimethylindazol-6-ol] | 1 to 10 | 1 to 10 | 1 to 10 | 0.1 to 1 | 1 to 10 |  |  | 
Cc1cn2nc(-c3ccc4cc(N(C)C5CCNCC5)cnc4n3)cc(C)c2n1 [Compound 205, 7-{2,8-dimethylimidazo[1,2-b]pyridazin-6-yl}-N-methyl-N-(piperidin-4-yl)-1,8-naphthyridin-3-amine] | > 10 | > 10 | > 10 | 1 to 10 | > 10 |  |  | 
C[C@@H]1CN(c2cnc3nc(-c4cc5cn(C)nc5c(F)c4O)ccc3c2)C[C@H](C)N1 [Compound 206] | < 0.1 | < 0.1 | 0.1 to 1 | < 0.1 | 0.1 to 1 |  |  | 
Cc1c(O)c(-c2cc(Cl)c3cc(N4C[C@@H](C)N[C@@H](C)C4)cnc3n2)cc2cn(C)nc12 [Compound 207, 5-{4-chloro-6-[(3R,5S)-3,5-dimethylpiperazin-1-yl]-1,8-naphthyridin-2-yl}-2,7-dimethylindazol-6-ol] |  |  |  | < 0.1 | 0.1 to 1 | 0.1 to 1 | < 0.1 | < 0.1
C[C@@H]1CN(c2cnc3nc(-c4cc5cn(C)nc5cc4O)cc(Cl)c3c2)C[C@H](C)N1 [Compound 208] | 1 to 10 | 1 to 10 | 1 to 10 | < 0.1 | 1 to 10 |  |  | 
Cn1cc2cc(-c3cc(Cl)c4cc(N5CCNC(C6CC6)C5)cnc4n3)cc(F)c2n1 (stereo not shown) [Compound 209, 4-chloro-6-(3-cyclopropylpiperazin-1-yl)-2-(7-fluoro-2-methylindazol-5-yl)-1,8-naphthyridine] | 1 to 10 | 1 to 10 | 1 to 10 | 0.1 to 1 | 1 to 10 |  |  | 
Cc1cn2nc(-c3ccc4cc(NC5CCNCC5)cnc4n3)cc(C)c2n1 [Compound 210, 7-{2,8-dimethylimidazo[1,2-b]pyridazin-6-yl}-N-(piperidin-4-yl)-1,8-naphthyridin-3-amine; trifluoroacetic acid] | 1 to 10 | 1 to 10 | 1 to 10 | 1 to 10 | 1 to 10 |  |  | 
CN[C@@H]1CCN(c2cnc3nc(-c4cc5cn(C)nc5c(C)c4O)nc(OC)c3c2)C1 [Compound 211, 5-{4-methoxy-6-[(3R)-3-(methylamino)pyrrolidin-1-yl]pyrido[2,3-d]pyrimidin-2-yl}-2,7-dimethylindazol-6-ol] | < 0.1 | < 0.1 | < 0.1 | < 0.1 | < 0.1 |  |  | 
CN[C@H]1CCN(c2cnc3nc(-c4cc5cn(C)nc5c(C)c4O)nc(OC)c3c2)C1 [Compound 212, 5-{4-methoxy-6-[(3S)-3-(methylamino)pyrrolidin-1-yl]pyrido[2,3-d]pyrimidin-2-yl}-2,7-dimethylindazol-6-ol] | < 0.1 | < 0.1 | 0.1 to 1 | < 0.1 | 0.1 to 1 |  |  | 
CNC1CCN(c2cnc3nc(-c4cc5cn(C)nc5cc4O)cc(Cl)c3c2)C1 (stereo not shown) [Compound 213, 5-{4-chloro-6-[3-(methylamino)370pyrrolidine-1-yl]-1,8-naphthyridin-2-yl}-2-methylindazol-6-ol] | 0.1 to 1 | 0.1 to 1 | 0.1 to 1 | < 0.1 | 0.1 to 1 |  |  | 
Cc1c(O)c(-c2ncc3cc(N4C[C@@H](C)N[C@@H](C)C4)cnc3n2)cc2cn(C)nc12 [Compound 214] | 0.1 to 1 | 0.1 to 1 | 1 to 10 | 0.1 to 1 | 1 to 10 |  |  | 
C[C@@H]1CN(c2cnc3nc(-c4cc(F)c5nn(C)cc5c4)cc(Cl)c3c2)C[C@H](C)N1 [Compound 215] | 1 to 10 | 1 to 10 | 1 to 10 | 0.1 to 1 | 1 to 10 |  |  | 
Cn1cc2cc(-c3cc(Cl)c4cc(N5CCN6CCCC6C5)cnc4n3)cc(F)c2n1 (stereo not shown) [Compound 216, 4-chloro-2-(7-fluoro-2-methylindazol-5-yl)-6-{hexahydro-1H-pyrrolo[1,2-a]pyrazin-2-yl}-1,8-naphthyridine trifluoroacetic acid] | 1 to 10 | 1 to 10 | 1 to 10 | 0.1 to 1 | 1 to 10 |  |  | 
Cc1c(O)c(-c2cc(-c3ccccn3)c3cc(N4C[C@@H](C)N[C@@H](C)C4)cnc3n2)cc2cn(C)nc12 [Compound 217, 5-{6-[(3R,5S)-3,5-dimethylpiperazin-1-yl]-4-(pyridin-2-yl)-1,8-naphthyridin-2-yl}-2,7-dimethylindazol-6-ol] | > 10 | > 10 | > 10 | 1 to 10 | 1 to 10 |  |  | 
COc1nc(-c2cc3cn(C)nc3c(F)c2O)nc2ncc(N3C[C@@H](C)N[C@@H](C)C3)cc12 [Compound 218] | < 0.1 | < 0.1 | 0.1 to 1 | < 0.1 | 0.1 to 1 |  |  | 
COc1nc(-c2cc3cn(C)nc3c(F)c2O)nc2ncc(N3CCC(N(C)C)CC3)cc12 [Compound 219, 5-{6-[4-(dimethylamino)piperidin-1-yl]-4-methoxypyrido[2,3-d]pyrimidin-2-yl}-7-fluoro-2-methylindazol-6-ol] | < 0.1 | < 0.1 | 0.1 to 1 | < 0.1 | 0.1 to 1 |  |  | 
CN(C)[C@@H]1CCN(c2cnc3nc(-c4cc5cn(C)nc5c(F)c4O)cc(Cl)c3c2)C1 [Compound 220] | < 0.1 | < 0.1 | 0.1 to 1 | < 0.1 | 0.1 to 1 |  |  | 
CN(C)[C@H]1CCN(c2cnc3nc(-c4cc5cn(C)nc5c(F)c4O)cc(Cl)c3c2)C1 [Compound 221] | < 0.1 | < 0.1 | 0.1 to 1 | < 0.1 | 0.1 to 1 |  |  | 
C[C@H]1CN(c2cnc3nc(-c4cc5cn(C)nc5cc4O)cc(Cl)c3c2)C[C@H](C)N1 [Compound 242] | 0.1 to 1 | 0.1 to 1 | 0.1 to 1 | < 0.1 | 0.1 to 1 |  |  | 
C[C@@H]1CN(c2cnc3nc(-c4cc5cn(C)nc5cc4O)cc(Cl)c3c2)C[C@@H](C)N1 [Compound 243, 5-{4-chloro-6-[(3R,5R)-3,5-dimethylpiperazin-1-yl]-1,8-naphthyridin-2-yl}-2-methylindazol-6-ol hydrochloride] | 1 to 10 | 1 to 10 | 1 to 10 | 0.1 to 1 | 1 to 10 |  |  | 
C[C@H]1CN(c2cnc3nc(-c4cc(F)c5nn(C)cc5c4)cc(Cl)c3c2)C[C@H](C)N1 [Compound 250] | 0.1 to 1 | 0.1 to 1 | 0.1 to 1 | < 0.1 | 0.1 to 1 |  |  | 
C[C@@H]1CN(c2cnc3nc(-c4cc(F)c5nn(C)cc5c4)cc(Cl)c3c2)C[C@@H](C)N1 [Compound 251] | 1 to 10 | 1 to 10 | 1 to 10 | 0.1 to 1 | 1 to 10 |  |  | 
Cc1c(O)c(-c2cc(-c3nnc[nH]3)c3cc(N4C[C@@H](C)N[C@@H](C)C4)cnc3n2)cc2cn(C)nc12 [Compound 261, 5-{6-[(3R,5S)-3,5-dimethylpiperazin-1-yl]-4-(4H-1,2,4-triazol-3-yl)-1,8-naphthyridin-2-yl}-2,7-dimethylindazol-6-ol] | > 10 | < 0.1 | > 10 | > 10 | 1 to 10 |  |  | 
C[C@@H]1CN(c2cnc3nc(-c4cc5cn(C)nc5c(F)c4O)cc(C#N)c3c2)C[C@H](C)N1 [Compound 266, 6-[(3R,5S)-3,5-dimethylpiperazin-1-yl]-2-(7-fluoro-6-hydroxy-2-methylindazol-5-yl)-1,8-naphthyridine-4-carbonitrile hydrochloride] | 0.1 to 1 | 0.1 to 1 | 1 to 10 | < 0.1 | 1 to 10 |  |  | 
CN[C@@H]1CCN(c2cnc3nc(-c4cc5cn(C)nc5c(F)c4O)cc(Cl)c3c2)C1 [Compound 271] | < 0.1 | < 0.1 | < 0.1 | < 0.1 | < 0.1 |  |  | 
